Measured values reported in patent US20200368247A1, “CENICRIVIROC FOR THE TREATMENT OF FIBROSIS” (Tobira Therapeutics, Inc., priority 2014, published 2020).
Blank lines part the entries; values can stand above or below the molecule they belong to.

Columns and labels:
[1] = molecular target: T1, CCR2 (Homo sapiens, UniProt P41597); experiment: CCR2 receptor occupancy / MCP-1-induced CCR2 internalization in PBMCs, flow cytometry; assay type: cell-based
T1 construct: endogenous in cells; host or cells: monocytes within PBMCs from HIV+ and HIV- subjects
T1 sequence (P41597 1-360 isoform P41597-2): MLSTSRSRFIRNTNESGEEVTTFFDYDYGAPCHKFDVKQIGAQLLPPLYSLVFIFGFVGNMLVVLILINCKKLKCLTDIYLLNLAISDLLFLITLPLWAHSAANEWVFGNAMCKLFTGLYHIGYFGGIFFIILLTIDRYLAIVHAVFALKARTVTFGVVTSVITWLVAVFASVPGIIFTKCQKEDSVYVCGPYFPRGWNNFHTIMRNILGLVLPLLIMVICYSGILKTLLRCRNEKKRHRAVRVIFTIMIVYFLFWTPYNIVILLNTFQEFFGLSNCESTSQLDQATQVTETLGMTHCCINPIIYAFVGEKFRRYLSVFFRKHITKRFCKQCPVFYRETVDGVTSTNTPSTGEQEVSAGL
Experimental: (§1) The capacity of each drug to inhibit CCR5 or CCR2 internalization was evaluated. Cell-surface expression of CCR5 and CCR2 was assessed by flow cytometry, and fluorescence values were converted into molecules of equivalent soluble fluorescence (MESF).

[2] = molecular target: T2, CCR5 (Homo sapiens, UniProt P51681); experiment: Inhibition of ligand binding to CCR5-expressing CHO cells
T2 sequence (P51681 whole entry): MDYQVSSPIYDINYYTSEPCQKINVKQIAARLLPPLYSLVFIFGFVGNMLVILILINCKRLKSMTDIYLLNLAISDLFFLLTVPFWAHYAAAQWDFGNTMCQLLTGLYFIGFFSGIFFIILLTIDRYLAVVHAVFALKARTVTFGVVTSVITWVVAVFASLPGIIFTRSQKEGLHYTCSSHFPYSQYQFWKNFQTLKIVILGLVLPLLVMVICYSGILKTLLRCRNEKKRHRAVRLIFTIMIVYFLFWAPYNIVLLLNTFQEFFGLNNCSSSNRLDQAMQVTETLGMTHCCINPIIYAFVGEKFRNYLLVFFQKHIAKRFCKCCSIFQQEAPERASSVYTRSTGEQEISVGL

[3] = system: HIV-1 BaL; experiment: PM-1 cells exposed to HIV-1 BaL: virus in culture fluids (qRT-PCR, p24) and intracellular strong-stop DNA; assay type: cell-based; details: 4 hrs
Description: Cells. PM-1 cells that express CD4, CCR5, and CXCR4 were maintained in RPMI-1640 medium containing 10% fetal bovine serum (R10 medium) at 37 C, 5% CO2. 293T cells used for transfection were maintained in DMEM at 10% FBS, L-glutamine, and antibiotics (D10 medium) at 37 C, 5% CO2. Virus Stocks. HIV-1 BaL virus was produced by transfecting 293T cells with the plasmid pWT/BaL. Lipofectamine 2000 was used as a transfection agent. Culture supernatants were collected at 48 hrs post-transfection, filtered through a 0.45 μm pore filter, and treated with 50 units of benzonase per ml of virus stock for 20 minutes at 37 C to remove contaminating plasmid DNA. […]
Both drugs were incubated with PM-1 cells for 1 hr at 37 C prior to the addition of virus. […] Viral adsorption was measured in the no-drug controls, whereby 500 ng of p24 Ag of HIV-1 Bal were added per 5×10^5 PM-1 cells that were pre-incubated at 37 C for 1 hr in the absence of drug treatment. […] Supernatant viral loads were measured using quantitative real-time reverse transcription PCR (qRT-PCR) with the primers US1SSF (5′-ΔΔ[…]-3′), US1SSR (5′-[…]-3′) and US1SS probe (5′-(FAM) […]) and the Invitrogen qRT-PCR Supermix Kit. […] RNA copy number was quantified by use of 10-fold serial dilutions of pBaL/wt to generate standard curves for each assay and calibrated against samples with known copy numbers from previous studies. […]

[4] = molecular target: T2, CCR5; experiment: CCR5 receptor occupancy / RANTES-induced CCR5 internalization in PBMCs, flow cytometry; assay type: cell-based; details: at saturating concentration
Experimental: as §1

concentration required to reach >80% receptor occupancy ([1]; CCR2, average): 18 nM | CCR2 cell-surface expression ([1]; in the absence of MCP-1, monocytes): slightly increased
Molecule: CSc1ccc(C(=O)N[C@@H]2CCCC[C@@H]2NC(=O)CNC(=O)c2cc(C(F)(F)F)ccc2NC(=O)NC(C)C)cc1 [BMS-22, reference compound]

IC50, inhibition of binding of RANTES to CCR5-expressing cells ([2]; CHO cells): no effect
Molecule: CCCCOCCOc1ccc(-c2ccc3c(c2)C=C(C(=O)Nc2ccc(SC)cc2)CCCN3CC(C)C)cc1 [M-II]

IC50 relative to the IC50 of CVC ([2]; RANTES binding to CCR5-expressing cells): approximately 2 fold
Molecule: CCCCOCCOc1ccc(-c2ccc3c(c2)C=C(C(=O)Nc2ccc(S(=O)(=O)Cc4cncn4CCC)cc2)CCCN3CC(C)C)cc1 [M-I]

Molecule: Maraviroc [MVC]
p24 antigen level in culture fluids ([3]; CVC 20 nM, MVC 50 nM, baseline 506): 520 ng/mL | relative intracellular strong-stop HIV DNA level compared to no drug control ([3]; PM-1 cells): 0.02 | CCR5 receptor occupancy ([4]; CD4+ T cells): ~86% | CCR5 receptor occupancy ([4]; CD8+ T cells): ~87%
